Tests used:
COX-1 [1] = target: T1, COX-1 (Homo sapiens, UniProt P23219); experiment: Assay of COX-1 activity from U937 cell microsomes; assay type: biochemical; parameters: endogenous in cells; host or cells: U937 cells, 100,000 x g microsomal fraction; settings: PGE2
Experimental: U 937 cells are pelleted by centrifugation at 500 x g for 5 min and washed once with phosphate-buffered saline and repelleted. Cells are resuspended in homogenization buffer consisting of 0.1 M Tris-HCl, pH 7.4, 10 mM EDTA, 2 µg/ml leupeptin, 2 µg/ml soybean trypsin inhibitor, 2 µg/ml aprotinin and 1 mM phenyl methyl sulfonyl fluoride. The cell suspension is sonicated 4 times for 10 sec and is centrifuged at 10,000 x g for 10 min at 4° C. The supernatant is centrifuged at 100,000 x g for 1 hr at 4° C. The 100,000 x g microsomal pellet is resuspended in 0.1 M Tris-HCl, pH 7.4, 10 mM EDTA to approximately 7 mg protein/ml and stored at -80° C. Microsomal preparations are thawed immediately prior to use, subjected to a brief sonication, and then diluted to a protein concentration of 125 µg/ml in 0.1 M Tris-HCl buffer, pH 7.4 containing 10 mM EDTA, 0.5 mM phenol, 1 mM reduced glutathione and 1 µM hematin. Assays are performed in duplicate in a final volume of 250 µl. […] Samples are neutralized with 25 µl of 1 N NaOH prior to quantitation of PGE2 content by radioimmunoassay (Dupont-NEN or Amersham assay kits). […] In the assays, inhibition is determined by measuring the amount of a prostaglandin synthesized in the presence and absence of a putative inhibitor. […]

Rat Paw edema = experiment: Rat paw edema assay (carrageenan); assay type: in vivo, Male Sprague-Dawley rats; settings: po, 1 hr before carrageenan, paw volume 3 hr later
Experimental: Male Sprague-Dawley rats (150-200 g) are fasted overnight and are given po, either vehicle (1% methocel or 5% Tween 80) or a test compound. One hr later, a line is drawn using a permanent marker at the level above the ankle in one hind paw to define the area of the paw to be monitored. The paw volume (V0) is measured using a plethysmometer (Ugo-Basile, Italy) based on the principle of water displacement. The animals are then injected subplantarly with 50 µl of 1% carrageenan solution in saline (FMC Corp, Maine) into the paw using an insulin syringe with a 25-gauge needle (i.e. 500 µg carrageenan per paw). Three hr later, the paw volume (V3) is measured and the increases in paw volume (V3 - VO) are calculated. The animals are sacrificed by CO2 asphyxiation and the absence or presence of stomach lesions scored. Data is compared with the vehicle-control values and percent inhibition calculated. All treatment groups are coded to eliminate observer bias.
Compounds of the present invention are inhibitors of COX-2 and are thereby useful in the treatment of COX-2 mediated diseases as enumerated above. The activities of compound A against cyclooxygenase may be seen in the representative results shown below in the Table. In the assays, inhibition is determined by measuring the amount of a prostaglandin synthesized in the presence and absence of a putative inhibitor. […]

COX-2 [2] = target: T2, COX-2 (Homo sapiens, UniProt P35354); experiment: Human whole blood assay, COX-2 (LPS-induced PGE2 production); assay type: cell-based; settings: LPS-induced PGE2, 24 hours at 37°C
T2 construct: endogenous in cells; host or cells: fresh heparinized human whole blood from volunteers, LPS-stimulated
T2 sequence (P35354 18-604): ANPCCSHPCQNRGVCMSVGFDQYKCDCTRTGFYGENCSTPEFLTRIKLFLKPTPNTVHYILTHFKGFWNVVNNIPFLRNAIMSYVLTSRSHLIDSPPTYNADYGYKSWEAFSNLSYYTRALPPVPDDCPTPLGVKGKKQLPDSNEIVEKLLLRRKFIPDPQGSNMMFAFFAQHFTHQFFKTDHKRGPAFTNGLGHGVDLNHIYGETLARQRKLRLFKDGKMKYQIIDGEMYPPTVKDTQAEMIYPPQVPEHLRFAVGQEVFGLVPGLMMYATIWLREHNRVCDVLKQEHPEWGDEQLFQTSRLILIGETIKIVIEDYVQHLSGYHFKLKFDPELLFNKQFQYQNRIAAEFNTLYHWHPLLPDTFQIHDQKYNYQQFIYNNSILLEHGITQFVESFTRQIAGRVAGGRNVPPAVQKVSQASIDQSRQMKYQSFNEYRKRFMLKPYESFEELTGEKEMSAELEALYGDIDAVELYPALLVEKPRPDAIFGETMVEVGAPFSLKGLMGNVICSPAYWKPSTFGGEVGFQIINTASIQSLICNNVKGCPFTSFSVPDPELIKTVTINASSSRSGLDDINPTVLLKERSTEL
Experimental: (§1) Human whole blood provides a protein and cell-rich milieu appropriate for the study of biochemical efficacy of anti-inflammatory compounds such as selective COX-2 inhibitors. […] This is consistent with the observation that COX-2 inhibitors have no effect on PGE2 production in normal blood. These inhibitors are active only after incubation of human whole blood with LPS, which induces COX-2. This assay can be used to evaluate the inhibitory effect of selective COX-2 inhibitors on PGE2 production. As well, platelets in whole blood contain a large amount of the COX-1 enzyme. Immediately following blood clotting, platelets are activated through a thrombin-mediated mechanism. […] Thus, the effect of test compounds on TxB2 levels following blood clotting can be examined and used as an index for COX-1 activity. Therefore, the degree of selectivity by the test compound can be determined by measuring the levels of PGE2 after LPS induction (COX-2) and TxB2 following blood clotting (COX-1) in the same assay. Fresh blood is collected in heparinized tubes by venipuncture from both male and female volunteers. The subjects have no apparent inflammatory conditions and have not taken any NSAIDs for at least 7 days prior to blood collection. […] In the assays, inhibition is determined by measuring the amount of a prostaglandin synthesized in the presence and absence of a putative inhibitor. […]

COX-1 [3] = target: T1, COX-1; experiment: Human whole blood assay, COX-1 (clotting-induced TxB2 production); assay type: cell-based; parameters: platelets in whole blood contain a large amount of the COX-1 enzyme; endogenous in cells; host or cells: platelets in fresh human whole blood without anticoagulant; settings: clotting-induced TxB2, 1 hour at 37°C
Experimental: as §1, with “into vacutainers containing” for “in heparinized tubes by venipuncture from both male and female volunteers. The subjects have”, “anticoagulants.” for “apparent inflammatory conditions and have not taken any NSAIDs for at least 7 days prior to blood collection.”

COX-1 [4] = target: T1, COX-1; experiment: Whole cell assay for COX-1 using CHO transfected cell line CHO[hCOX-1]; assay type: cell-based; parameters: platelets in whole blood contain a large amount of the COX-1 enzyme; endogenous in cells; host or cells: platelets in fresh human whole blood without anticoagulant; settings: CHO[hCOX-1] cells, 0.5 µM AA, PGE2
Experimental: (§2) Chinese hamster ovary (CHO) cell lines which have been stably transfected with an eukaryotic expression vector pCDNAIII containing either the human COX-1 or COX-2 cDNA's are used for the assay. These cell lines are referred to as CHO [hCOX-1] and CHO [hCOX-2], respectively. For cyclooxygenase assays, CHO[hCOX-1] cells from suspension cultures and CHO[hCOX-2] cells prepared by trypsinization of adherent cultures are harvested by centrifugation (300 x g, 10 min) and washed once in HBSS containing 15 mM HEPES, pH 7.4, and resuspended in HBSS, 15 mM HEPES, pH 7.4, at a cell concentration of 1.5 x 10^6 cells/ml. Drugs to be tested are dissolved in DMSO to 66.7-fold the highest test drug concentration. Compounds are typically tested at 8 concentrations in duplicate using serial 3-fold serial dilutions in DMSO of the highest drug concentration. […] Cyclooxygenase activity in the absence of test compounds is determined as the difference in PGE2 levels of cells challenged with arachidonic acid versus the PGE2 levels in cells mock-challenged with ethanol vehicle. Inhibition of PGE2 synthesis by test compounds is calculated as a percentage of the activity in the presence of drug versus the activity in the positive control samples. […] In the assays, inhibition is determined by measuring the amount of a prostaglandin synthesized in the presence and absence of a putative inhibitor. […]

COX-2 [5] = target: T2, COX-2; experiment: Whole cell assay for COX-2 using CHO transfected cell line CHO[hCOX-2]; assay type: cell-based; settings: CHO[hCOX-2] cells, 10 µM AA, PGE2
Experimental: as §2

T1 sequence (P23219 24-599): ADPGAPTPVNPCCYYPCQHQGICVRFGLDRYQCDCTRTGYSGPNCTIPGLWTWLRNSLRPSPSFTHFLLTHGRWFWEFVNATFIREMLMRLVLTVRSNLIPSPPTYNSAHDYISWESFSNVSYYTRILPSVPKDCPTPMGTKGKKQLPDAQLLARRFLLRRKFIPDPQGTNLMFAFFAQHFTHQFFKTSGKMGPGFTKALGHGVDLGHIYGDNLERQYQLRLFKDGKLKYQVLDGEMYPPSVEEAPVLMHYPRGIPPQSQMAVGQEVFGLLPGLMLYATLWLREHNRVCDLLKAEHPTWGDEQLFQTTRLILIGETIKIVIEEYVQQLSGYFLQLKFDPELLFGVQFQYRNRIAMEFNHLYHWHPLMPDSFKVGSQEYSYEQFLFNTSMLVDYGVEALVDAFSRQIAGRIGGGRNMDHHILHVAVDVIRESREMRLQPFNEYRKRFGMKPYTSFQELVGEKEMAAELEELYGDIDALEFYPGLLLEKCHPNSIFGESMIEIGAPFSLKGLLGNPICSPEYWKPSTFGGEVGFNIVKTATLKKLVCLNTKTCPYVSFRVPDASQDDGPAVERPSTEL

Compound | IC50 (COX-1 [1]) [µM] | ED50 (Rat Paw edema) [mg/kg] | IC50 (COX-2 [2]) [µM] | IC50 (COX-1 [3]) [µM] | IC50 (COX-1 [4]) [µM] | IC50 (COX-2 [5]) [µM] | IC50 (COX-1 [4]; unit inferred) [µM]
CS(=O)(=O)c1ccc(C2=C(c3cc(F)cc(F)c3)C(=O)CC2)cc1 [Compound A, 2-(3,5-difluorophenyl)-3-(4-(methylsulfonyl)phenyl)-2-cyclopenten-1-one] | 11 | 2.6 | 0.45 | 77 | > 50 | 0.03 | 
CS(=O)(=O)c1ccc(C2=C(c3ccc(F)cc3)C(=O)CC2)cc1 [Compound B] | 0.45 | 3 | 0.12 | 4.4 |  | 0.02 | 17
